Laboratory results published in patent publication EP0552417B1, “Cyclic peptides and use thereof” (priority 1991, dated 1993).
Non-standard residues stand in square brackets, D forms with d. Residues, ends and D or L forms follow the SMILES beside them. *: point of attachment. 1Nal = N[C@@H](Cc1cccc2ccccc12)C(=O)O; Bn = c1ccc(C*)cc1

Assays:
[1] = target: T1, endothelin receptor B (ETB) (Bos taurus, UniProt P28088); experiment: Assay of affinity for receptor (2): binding activity on ETB receptor *1, 125I-labeled endothelin-1, bovine brain membrane fraction; settings: 1 hour; for Binding Activity on ET Receptor (R. act.) ETB*1: specific activity, taking the binding activity of the compound of Example 8 on receptor B as 100, 25°C
T1 construct: A membrane fraction prepared from the bovine brain; from tissue; host or cells: bovine brain membrane fraction
T1 sequence (P28088 27-441): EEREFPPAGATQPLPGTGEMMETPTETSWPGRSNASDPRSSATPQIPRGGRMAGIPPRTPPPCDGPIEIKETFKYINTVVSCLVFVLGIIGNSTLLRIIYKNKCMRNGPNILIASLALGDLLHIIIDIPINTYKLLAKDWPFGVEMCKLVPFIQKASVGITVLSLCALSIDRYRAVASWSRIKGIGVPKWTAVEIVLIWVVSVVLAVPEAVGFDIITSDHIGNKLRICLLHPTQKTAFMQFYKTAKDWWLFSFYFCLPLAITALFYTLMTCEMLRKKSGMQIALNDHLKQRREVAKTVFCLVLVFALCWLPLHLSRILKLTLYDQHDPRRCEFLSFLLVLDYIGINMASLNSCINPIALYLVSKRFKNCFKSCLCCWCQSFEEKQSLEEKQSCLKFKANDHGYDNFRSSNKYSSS
Procedure: Assay of Affinity for Receptor (2) ... Binding Activity on ETB Receptor *1
A membrane fraction prepared from the bovine brain was diluted to 0.15 mg/ml by using a buffer solution for assay, and 100 µl of the resulting suspension of the membrane fraction was poured into each assay tube to use for assay. To this suspension of the membrane fraction was added 2 µl of 5 nM ^125I labeled endothelin-1 solution. Further, 3 µl of a test peptide solution was added thereto, followed by incubation at a temperature of 25°C for 1 hour. Then, the resulting suspension was diluted with 900 µl of the buffer solution for assay cooled with ice, and thereafter separated into a supernatant and a precipitate by centrifugation at 12,000 X g for 10 minutes. Cell membranes and an endothelin receptor B (ETB) embedded therein were contained in the precipitate, and radioactive iodine-labeled endothelin bound to the receptor was also recovered in the precipitate. Accordingly, the amount of radioactive iodine-labeled endothelin bound to the endothelin receptor B (ETB) was determined by measuring the amount of radioactive iodine contained in the precipitate with a gamma-ray counter. The numerical value of ETB shown in Table 1 is the value of specific activity, taking the binding activity of the compound of Example 8 on the receptor B as 100.

ETB = ETB radio receptor assay *2, 125I-endothelin-1, guinea pig kidney crude membrane fraction; assay type: binding, Guinea pigs; settings: relative activity, 37 °C, 90 minutes
Method in brief: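 Radioligand binding used crude guinea pig kidney membranes (2.1 µg protein) with 740 Bq 125I-endothelin-1. Incubation was 90 min at 37 °C in 50 mM Tris-HCl pH 7.4, 0.1 mM PMSF, 1 mM EDTA, 0.2% BSA. Bound radioactivity was collected by GF/B filtration and measured by gamma counting.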

[2] = target: T2, endothelin receptor A (ETA) (Sus scrofa, UniProt Q29010); experiment: Assay of affinity for receptor (1): binding activity on ETA receptor, 125I-labeled endothelin-1, porcine heart membrane fraction; set-up: key: relative specific activity; reference cyclic pentapeptide ETA binding = 1.0; settings: specific activity, taking the binding activity of control cyclo[-D-Glu-Ala-D-aIle-Leu-D-Trp-] on receptor A as 1.0, 25°C, 1 hour
T2 construct: A membrane fraction prepared from the porcine heart; from tissue; host or cells: porcine heart membrane fraction
T2 sequence (Q29010 21-427): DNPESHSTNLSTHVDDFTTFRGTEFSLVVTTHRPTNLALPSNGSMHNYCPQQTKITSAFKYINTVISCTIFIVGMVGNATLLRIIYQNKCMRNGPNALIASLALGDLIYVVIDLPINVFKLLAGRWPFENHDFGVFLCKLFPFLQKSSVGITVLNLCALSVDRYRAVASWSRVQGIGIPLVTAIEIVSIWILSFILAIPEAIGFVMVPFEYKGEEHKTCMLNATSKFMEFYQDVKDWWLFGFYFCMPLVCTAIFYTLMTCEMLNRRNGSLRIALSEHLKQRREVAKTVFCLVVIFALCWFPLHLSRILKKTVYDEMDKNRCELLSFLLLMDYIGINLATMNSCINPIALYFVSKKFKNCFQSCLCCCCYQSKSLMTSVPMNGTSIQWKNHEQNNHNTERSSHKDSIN
Method in brief: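 Porcine heart membranes (0.15 mg/ml) incubated with 125I-endothelin-1 and test peptide for 1 h at 25°C, then centrifuged; pellet-bound radioactivity counted by gamma counter. Values given as specific activity relative to reference cyclo[-D-Glu-Ala-D-aIle-Leu-D-Trp-], set at 1.0.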

SMILES | IC50 ([1]; 25°C) [µM] | Binding Activity on ET Receptor (R. act.) ETB*1 [1] | Binding Activity on ET Receptor (R. act.) ETB*2 (ETB) | Binding Activity on ET Receptor (R. act.) ETA [2]
CC(C)C[C@@H]1NC(=O)[C@@H](CC(C)C)NC(=O)[C@H](CC(=O)O)NC(=O)[C@H](Cc2cccc3ccccc23)NC(=O)[C@@H](CC(=O)O)NC(=O)[C@@H](Cc2c[nH]c3ccccc23)NC1=O [Example 23, Cyclo[-D-Asp-Nal(1)-Asp-D-Leu-Leu-D-Trp-]] (cyclo([1Nal]D[dL]L[dW][dD])) |  | 11 | 7.7 | 8.3
CC(C)C[C@@H]1NC(=O)[C@@H](CC(C)C)NC(=O)[C@@H]2CCCN2C(=O)[C@H](Cc2c[nH]c3ccccc23)NC(=O)[C@@H](CC(=O)O)NC(=O)[C@@H](Cc2c[nH]c3ccccc23)NC1=O [Example 36, Cyclo[-D-Asp-Trp-Pro-D-Leu-Leu-D-Trp-]] (cyclo(L[dW][dD]WP[dL])) |  | 40 | 42 | 17
CC(C)C[C@@H]1NC(=O)[C@@H](CC(C)C)NC(=O)[C@H](COCc2ccccc2)NC(=O)[C@H](Cc2c[nH]c3ccccc23)NC(=O)[C@@H](CC(=O)O)NC(=O)[C@@H](Cc2c[nH]c3ccccc23)NC1=O [Example 38, Cyclo[-D-Asp-Trp-Ser(Bzl)-D-Leu-Leu-D-Trp-]] (cyclo(L[dW][dD]WS(Bn)[dL])) |  | 66 | 170 | 13

The remaining lines, values ahead:

IC50 ([1]; 25°C) [µM] | Binding Activity on ET Receptor (R. act.) ETB*1 [1] | Binding Activity on ET Receptor (R. act.) ETB*2 (ETB) | Binding Activity on ET Receptor (R. act.) ETA [2] | SMILES
3 | 100 | 100 | 76 | CC(C)C[C@@H]1NC(=O)[C@@H](CC(C)C)NC(=O)[C@H](CC(=O)O)NC(=O)[C@H](Cc2c[nH]c3ccccc23)NC(=O)[C@@H](CC(=O)O)NC(=O)[C@@H](Cc2c[nH]c3ccccc23)NC1=O [Example 8, cyclo[-D-Asp-Trp-Asp-D-Leu-Leu-D-Trp-]] (cyclo(D[dL]L[dW][dD]W))
 | 77 | 44 | 20 | CC(C)C[C@@H]1NC(=O)[C@@H](CC(C)C)NC(=O)[C@H](CCC(=O)O)NC(=O)[C@H](Cc2c[nH]c3ccccc23)NC(=O)[C@@H](CC(=O)O)NC(=O)[C@@H](Cc2c[nH]c3ccccc23)NC1=O [Example 34, Cyclo[-D-Asp-Trp-Glu-D-Leu-Leu-D-Trp-]] (cyclo(E[dL]L[dW][dD]W))
 | 52 | 24 | 9.1 | CC(C)C[C@@H]1NC(=O)[C@H](Cc2c[nH]c3ccccc23)NC(=O)[C@@H](CC(=O)O)NC(=O)[C@@H](Cc2c[nH]c3ccccc23)NC(=O)[C@H](CC(C)C)NC(=O)[C@@H](CC(C)C)NC1=O [Example 35, Cyclo[-D-Asp-Trp-Leu-D-Leu-Leu-D-Trp-]] (cyclo(L[dL]L[dW][dD]W))
 | 22 | 18 | 24 | CC(C)C[C@@H]1NC(=O)[C@@H](CC(C)C)NC(=O)[C@H](CO)NC(=O)[C@H](Cc2c[nH]c3ccccc23)NC(=O)[C@@H](CC(=O)O)NC(=O)[C@@H](Cc2c[nH]c3ccccc23)NC1=O [Example 37, Cyclo[-D-Asp-Trp-Ser-D-Leu-Leu-D-Trp-]] (cyclo(L[dW][dD]WS[dL]))
